Data on 4 compounds can be found in US20260078454A1, “MULTIPLE ANTIBIOTIC BACTERIAL RESPONSE” (priority 2022, published 2026).

The subject of one assay is Acinetobacter baumannii. Type of assay: cell-based. The settings on record: for differentially expressed transcripts in common between amikacin and gentamicin: 3.5 hours of exposure; for number of differentially expressed transcripts: pan-susceptible strain, MIC breakpoint, vs no-antibiotic control. The protocol:
A pan-susceptible Acinetobacter baumannii was cultured and exposed to each of the nine conditions (including a no-antibiotic control) above as a single-exposure condition, meaning only one antibiotic per sample, no combination of drugs. Antibiotics were dosed at the resistance break point concentration (MIC breakpoint) for each compound according to the 2023 CLSI M100 guidelines. Antibiotic-treated and control cultures were maintained for 0.5 hours, 1.5 hours, 2.5 hours, and 3.5 hours and subsequently harvested to conduct RNA-seq, as discussed above in Example 3. Multiple replicates of this experimental set-up were performed to assess variance of the transcriptional response.
Cultures at the appropriate OD595 were transferred to a 37° C. incubator until the OD595 was between 0.9-1.4. The culture was distributed into individual treatment tubes containing antibiotics (or not for the control condition) and incubated at 37° C. for the specified exposure times (0.5, 1.5, 2.5, 3.5 hrs). At each timepoint, an aliquot of each of the treated and control culture conditions was removed and nucleic acid was extracted on the bioMérieux EMAG platform. […] The nucleic acid extracts were then treated with DNAse to remove all genomic DNA and extracted a second time, resulting in a pure RNA sample for each condition. These RNA samples were sent to the High-Throughput Genomics Core at the Huntsman Cancer Institute at the University of Utah for RNA-sequencing on the Illumina NovaSeq 6000 platform. A total of five biological replicates were made, which would result in 180 RNA-seq samples (36*5), although due to some instrument difficulties an actual total of 161 samples were sent to the sequencing core lab.
Differential expression analysis of RNA-seq read data is as follows. Read data was adapter and quality trimmed using bbduk (bbmap_38.86). Adapter and quality trimmed reads (fastq) were mapped to an Acinetobacter baumannii genome using Kallisto (Kallisto v0.48.0) to generate read counts for each annotated transcript in the genome. Read count data (all conditions) were normalized using Sleuth (0.30.1) and differential expression tests conducted between each independent antibiotic exposure condition and the no-antibiotic time matched control using the lrt test within Sleuth using a qvalue significance cutoff of 0.05 to determine differential expression. Lists of differentially expressed transcripts for each antibiotic and each timepoint were generated and aggregated according to the MOA classes (see prior) to determine if there was significant overlap in the transcriptional response to each MOA class of antibiotics.

Another assay relates to Pseudomonas aeruginosa. The experiment in a line: RNA-seq differential expression after single and combined antibiotic exposure. Type of assay: cell-based. The following applies: pan susceptible strain; CLSI resistance break point concentration; 60 minutes; regardless of whether the other two antibiotics were present.

Procedure for Pseudomonas aeruginosa: RNA-sequencing (“RNA-seq”) was conducted using two strains of Pseudomonas aeruginosa: one a resistant strain and the second a pan susceptible strain. The strains were cultured to an optical density of 1.0, or approximately 1.5×10^9 genomic copies/mL (measured using digital PCR). The culture was then aliquoted into four independent culture tubes, three of which contained one single antibiotic and the fourth was a no-antibiotic control. Once mixed with antibiotics, where each antibiotic was dosed at its CLSI resistance break point concentration based upon 2021 guidance, the culture aliquots were returned to an incubator set to 37° C. using ambient air and agitated using orbital mixing for 60 minutes. […] Recovered reads were processed through an internal RNA-seq bioinformatics pipeline that includes the following steps: read quality and adapter trimming, surviving reads were assigned a genomic position in the reference P. aeruginosa genome PA01 using Kallisto (and read counts with dispersion estimates calculated), and differential expression analysis comparing each antibiotic treatment with the no-antibiotic control data set were conducted using Sleuth for each strain. […]

With `NCC[C@H](O)C(=O)N[C@@H]1C[C@H](N)[C@@H](O[C@H]2O[C@H](CN)[C@@H](O)[C@H](O)[C@H]2O)[C@H](O)[C@H]1O[C@H]1O[C@H](CO)[C@@H](O)[C@H](N)[C@H]1O` [amikacin], in the assay on Acinetobacter baumannii, the “differentially expressed transcripts in common between amikacin and gentamicin” value is 93.2%. Further, in the assay with Acinetobacter baumannii (0.5 hrs of exposure), the “number of differentially expressed transcripts” value (from here on “number of differentially”) was 1825.

For `C[C@H]1COc2c(N3CCN(C)CC3)c(F)cc3c(=O)c(C(=O)O)cn1c23` [levofloxacin], the “number of differentially” value with Acinetobacter baumannii (0.5 hrs of exposure) turned out to be 1394.

Consider `C[C@@H](O)[C@H]1C(=O)N2C(C(=O)O)=C(S[C@@H]3CN[C@H](C(=O)N(C)C)C3)[C@H](C)[C@H]12` [meropenem], for which the “regulation of antibiotic specific response transcripts” value in the assay with Pseudomonas aeruginosa is reported as “up regulation of five transcripts”.

With gentamicin, in the assay with Acinetobacter baumannii (0.5 hrs of exposure), the “overlap of gentamicin response with amikacin response” value is “fully contained within the amikacin response” and the “number of differentially” value came to 6. In addition, the “differentially expressed transcripts in common between amikacin and gentamicin” value with Acinetobacter baumannii was determined as 93.2%. The “regulation of antibiotic specific response transcripts” value with Pseudomonas aeruginosa is reported as “up regulation of eight transcripts”.
